{"source": "patent US20130209582A1", "about": "“HYDROGEN IODIDE-[…] FOOD AND HYDROGEN IODIDE-CONTAINING DRUG, AND METHOD FOR PRODUCING SAME” (priority 2010, published 2013)", "assay": "Gastrointestinal absorption and retention in the thyroid gland after taking hydrogen iodide into the body", "type": "in vivo", "conditions": "through gastrointestinal absorption", "experimental": "When taking hydrogen iodide into the body, the hydrogen iodide reaches to the thyroid gland within 30 minutes through gastrointestinal absorption. Since the hydrogen iodide is retained in the thyroid gland for about two hours, it is preferable to take the health food or the pharmaceutical product every two hours in a serious case. Moreover, it is preferable to take them not in large quantities at one time, but in small quantities frequently on an empty stomach.", "data": [{"smiles": "I", "note": "[hydrogen iodide]", "values": [{"measurement": "time to reach the thyroid gland", "result": "≤ 30", "unit": "min"}]}]}
